Literature values in patent publication US20230285350A1, “FORMULATIONS FOR TETRACAINE AND LIDOCAINE” (LYOTIP, INC., priority 2020, published 2023).

In the case of CCN(CC)CC(=O)Nc1c(C)cccc1C [lidocaine, Lidocaine], the duration of effect (used as an injectable) is given as “half an hour to three hours”.
In the case of CCCCNc1ccc(C(=O)OCCN(C)C)cc1 [Tetracaine], the Onset of effects (used in the eyes) is given as no more than 30 s and the duration of effects (used in the eyes) is given as “less than 15 minutes”.
For CNC[C@H](O)c1ccc(O)c(O)c1 [Epinephrine], the “prolongation of numbing effect and motor block effect of the anesthetic” value (used with tetracaine) is listed as “up to an hour”.
